We go through 19 compounds from ChEMBL document CHEMBL1128470, “Novel angiotensin II receptor antagonists. Design, synthesis, and in vitro evaluation of dibenzo[a,d]cycloheptene and dibenzo[b,f]oxepin derivatives. Searching for bioisosteres of biphenylyltetrazole using a three-dimensional search technique” (J Med Chem, 1995).

For the experiment, the target named is T1, Type-1 angiotensin II receptor (Homo sapiens, UniProt P30556).
T1 sequence (P30556 whole entry): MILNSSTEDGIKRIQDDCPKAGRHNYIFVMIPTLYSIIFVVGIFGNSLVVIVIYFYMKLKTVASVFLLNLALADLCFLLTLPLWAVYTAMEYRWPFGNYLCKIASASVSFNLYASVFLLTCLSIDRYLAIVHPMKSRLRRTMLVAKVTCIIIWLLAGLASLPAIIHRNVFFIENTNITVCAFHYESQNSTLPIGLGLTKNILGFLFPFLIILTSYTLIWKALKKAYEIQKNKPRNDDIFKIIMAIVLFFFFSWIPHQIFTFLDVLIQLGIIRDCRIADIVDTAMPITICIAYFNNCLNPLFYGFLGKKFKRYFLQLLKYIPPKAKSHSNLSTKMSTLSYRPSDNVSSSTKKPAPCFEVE
In words: Ability to displace [125I]AII binding to COS cells transfected with a cDNA encoding human Angiotensin II receptor, type 1. The class given is cell-based.

The Ki is a dissociation constant, usually derived from enzyme kinetics or from competition with a known ligand.

Each structure is given as a SMILES string.

Regarding `CCOC(=O)c1c(NCc2ccc3c(-c4nnn[nH]4)cc4ccccc4c(=O)c3c2)cc(C)nc1C`, the Ki turned out to be 2.9 nM.

As for `CCc1cc(NCc2ccc3c(-c4nnn[nH]4)cc4ccccc4c(=O)c3c2)n2nccc2n1`, the Ki was found to be 1.1 nM.

`CCCCC(=O)N(Cc1ccc2c(c1)Oc1ccccc1C=C2c1nnn[nH]1)[C@H](C(=O)O)C(C)C` returned a Ki of 9.6 nM.

`CCc1cc(OCc2ccc3c(-c4nnn[nH]4)cc4ccccc4c(=O)c3c2)c2c(n1)CCCC2` showed a Ki of 1.3 nM.

With `CCCCc1nc(Cl)c(C=O)n1Cc1ccc2c(-c3nnn[nH]3)cc3ccccc3c(=O)c2c1`, the affinity corresponds to a Ki of 12 nM.

`CCCCC(=O)N(Cc1ccc2c(-c3nnn[nH]3)cc3ccccc3c(=O)c2c1)[C@H](C(=O)O)C(C)C` came in with a Ki of 8.7 nM.

`CCCc1nc2c(C)cc(C)nc2n1Cc1ccc2c(c1)Oc1ccccc1C=C2c1nnn[nH]1` registered a Ki of 0.7 nM.

Turning to `CCc1cc(OCc2ccc3c(-c4nnn[nH]4)cc4ccccc4c(=O)c3c2)c2cc(C(=O)O)ccc2n1`, affinity was put at a Ki of 2.7 nM.

For `CCCCc1nc(Cl)c(C(=O)O)n1Cc1ccc2c(-c3nnn[nH]3)cc3ccccc3c(=O)c2c1`, the Ki was determined as 2.1 nM.

The compound `CCOC(=O)c1c(OCc2ccc3c(-c4nnn[nH]4)cc4ccccc4c(=O)c3c2)cc(C)nc1C` came in with a Ki of 4.3 nM.

Turning to `CCc1cc(OCc2ccc3c(-c4nnn[nH]4)cc4ccccc4c(=O)c3c2)c2ccccc2n1`, the Ki came out at 0.65 nM.

`CCc1nc2c(C)cc(C)nc2n1Cc1ccc2c(-c3nnn[nH]3)cc3ccccc3c(=O)c2c1` had a Ki of 0.66 nM.

Consider `CCc1cc(OCc2ccc3c(-c4nnn[nH]4)cc4ccccc4c(=O)c3c2)c2nc(OC)ccc2n1`, for which the Ki was 0.48 nM.

For `CCOc1nc2cccc(C(=O)O)c2n1Cc1ccc2c(-c3nnn[nH]3)cc3ccccc3c(=O)c2c1`, the Ki was 2.7 nM.

For `CCCc1nc2c(C)cc(C)nc2n1Cc1ccc2c(-c3nnn[nH]3)cc3ccccc3c(=O)c2c1`, affinity was put at a Ki of 0.29 nM.

`Cc1cc(C)c2nc(C3CC3)n(Cc3ccc4c(-c5nnn[nH]5)cc5ccccc5c(=O)c4c3)c2n1` had a Ki of 0.45 nM.

In turn, `Cc1cc(OCc2ccc3c(-c4nnn[nH]4)cc4ccccc4c(=O)c3c2)c2c(n1)CCCC2` showed a Ki of 4.3 nM.

The compound `CCOc1nc2cccc(C(=O)O)c2n1Cc1ccc2c(c1)Oc1ccccc1C=C2c1nnn[nH]1` yielded a Ki of 3.9 nM.

As for `CCCc1nc2c(C)cc(C)nc2n1Cc1ccc2c(c1)Cc1ccccc1C=C2c1nnn[nH]1`, the Ki was found to be 0.49 nM.
